Data taken from article PMC11696576, “Next generation thiazolyl ketone inhibitors of cytosolic phospholipase A2 α for targeted cancer therapy” (Nature Communications, 2025).
“And” between values parts separate entries of the source, which are not always exact repeats. Equal entries are not always repeated.

Legend:
[1] = test system: Jurkat E6.1 cells; experiment: cell death, PI exclusion and flow cytometry, time course (Figure S9b); type: cell-based, human; set-up: unit not given here; settings: replicates, listed as AVX420
[2] = test system: CCRF-CEM cells; experiment: RNA-Seq differential gene expression; type: cell-based, human; settings: for log2(fold change): Upregulated
From the text: Given our findings that the sensitivity to AVX420 was dependent on increased intracellular ROS, we hypothesized that activation of the integrated stress response (ISR) by oxidative damage may be the cause of cell death. The ISR converges on deactivation of the eukaryotic translation initiation factor 2 alpha (eIF2α) to globally suppress translation, with the exception of selected genes (e.g., activating transcription factor (ATF) 4) which activate robust transcriptional changes to restore homeostasis and promote survival or, when oxidative damage is sustained, to initiate programmed cell death. To investigate this, we used a combination of RNA-SEQ and Ribosomal RNA-SEQ (Ribo-SEQ) to measure the global transcriptional and translational response to AVX420 in CCRF-CEM cells. […] Translational effects were determined by calculating the proportion of total transcript associated with the ribosome (ribosomal occupancy (RO)). […] As a positive control we treated cells for 1 hour with the dual mTOR inhibitor Torin-1, which reduced the RO of 20 mRNAs.
CCRF-CEM cells seeded at 200,000 viable cells/mL were treated with AVX420 (0.5 μM) or DMSO (0.1%) and harvested after 1 hour, 6 h, or 16 h. Torin-1 (100 nM) treatment was harvested after 1 h. The flasks were placed on ice and the cell suspensions were transferred to 50 mL conical tubes for centrifugation (405 × g, 4 °C, 5 min). […] The cells were collected and centrifuged at 405 x g for 5 min at 4 °C. The supernatant was discarded, and the cells were suspended in 1 mL of DPBS before centrifugation at 405 x g for 5 min at 4 °C. Resulting cell pellets were snap-frozen in liquid nitrogen and stored at −80 °C. RNA-Seq and ribosome-associated RNA(Ribo)-Seq was performed by Eclipsebio (eclipsebio.com). Protocols are available in the Supplemental Methods section. […]
correction using the Benjamini-Hochberg correction to control the rate of false-posi-tives. Gene sets with false discovery rate <20% were considered significant. […]
RNA-Seq and ribosome-associated RNA(Ribo)-Seq
RNA-Seq and ribosome-associated RNA(Ribo)-Seq was performed by Eclipsebio (eclipsebio.com). The cytosolic fraction of crosslinked cell pellets was isolated and RNA quality and quantity was assessed before 250 ng of the isolated RNA was used to build 3’ RNA-Seq libraries. 10 µg RNA was used for immunoprecipitation (IP) for Ribo-SEQ analysis. Non-crosslinked RNA was removed from the IP through multiple wash steps and the remaining RNA was released via proteinase digestion. RNA from both sources was fragmented and libraries were generated from the poly(A) tails. Li-braries were sequenced on a NextSeq 2 000. After sequencing, samples were pro-cessed with Eclipsebio’s proprietary analysis pipeline (v1). Unique molecular identifi-ers (UMIs) were pruned from read sequences using umitools (v1.1.1). Next 3' adapt-ers were trimmed from reads using cutadapt (v3.2). Reads were then mapped to a cus-tom, curated database of repetitive elements and rRNA sequences. All non -repeat mapped reads were mapped to the genome hg38 using STAR (v2.7.7a) and PCR du-plicates were removed using umi_tools (v1.1.1). Gene coverage was cal culated using Eclipsebio’s proprietary feature counting algorithm and ribosome occupancy was cal-culated by dividing coverage in the ribosome -associated (IP) library by the RNA -Seq library. Differentially expressed and occupied genes were identified using D ESeq2.
Significant differential expression was defined using a cutoff on p.value < 0.01 (after multiple testing adjustment, "padj" metric) and requiring the fold change in gene cov-erage to be greater than 1 or less than -1 (log2 scale). Significance of the ribosomal occupancy (RO) difference was determined by extending DESeq2 models to include RO fold change as an interaction between the experimental condition and the library type. Genes with a RO log2 (fold change) > 1 or < -1 and an adjusted p-value < 0.01 were considered significant. […]

CCCCCCCOc1ccc(OCC(=O)c2nc(C(=O)OC)cs2)cc1 [GK420]
PI Negative (Figure S9b) ([1]; 1h): 92 and 90 | PI Positive (Figure S9b) ([1]; 1h): 8 and 10 | PI Negative (Figure S9b) ([1]; 2h): 88 and 92 | PI Positive (Figure S9b) ([1]; 2h): 12 and 8 | PI Negative (Figure S9b) ([1]; 4h): 94 and 93 and 92 | PI Positive (Figure S9b) ([1]; 4h): 6 and 7 and 8 | PI Negative (Figure S9b) ([1]; 8h): 91 (2×) and 87 and 88 | PI Positive (Figure S9b) ([1]; 8h): 9 (2×) and 13 and 12 | PI Negative (Figure S9b) ([1]; 12h): 80 and 83 and 82 | PI Positive (Figure S9b) ([1]; 12h): 20 and 17 and 18 | PI Negative (Figure S9b) ([1]; 16h): 70 and 75 and 71 | PI Positive (Figure S9b) ([1]; 16h): 30 and 25 and 29 | PI Negative (Figure S9b) ([1]; 24h): 65 and 67 and 73 | PI Positive (Figure S9b) ([1]; 24h): 35 and 33 and 27 | log2(fold change) ([2]; ADM2, 6 h): 1.49 | log2(fold change) ([2]; ATF3, 6 h): 1.05 | changes in gene expression ([2]; CCRF-CEM, 0.5 μM, 1 hour): No significant changes | log2FC ADM2 ([2]; CCRF-CEM, 0.5 μM, 6 h): 1.49 | log2FC ATF3 ([2]; CCRF-CEM, 0.5 μM, 6 h): 1.05 | log2FC CHAC1 ([2]; CCRF-CEM, 0.5 μM, 6 h): 2.25 | log2FC DDIT3 ([2]; CCRF-CEM, 0.5 μM, 6 h): 1.15 | log2FC ENSG00000260498 ([2]; CCRF-CEM, 0.5 μM, 6 h): 1.44 | log2FC GPT2 ([2]; CCRF-CEM, 0.5 μM, 6 h): 1.24 | log2FC L3MBTL2-AS1 ([2]; CCRF-CEM, 0.5 μM, 6 h): 2.13 | log2FC LINC-PINT ([2]; CCRF-CEM, 0.5 μM, 6 h): 1.34 | log2FC LY9 ([2]; CCRF-CEM, 0.5 μM, 6 h): 1.05 | log2FC SESN2 ([2]; CCRF-CEM, 0.5 μM, 6 h): 1.59 | log2FC SLC6A9 ([2]; CCRF-CEM, 0.5 μM, 6 h): 1.25 | log2FC SLC7A11 ([2]; CCRF-CEM, 0.5 μM, 6 h): 1.57 | log2FC ULBP1 ([2]; CCRF-CEM, 0.5 μM, 6 h): 1.2 | log2FC VLDLR ([2]; CCRF-CEM, 0.5 μM, 6 h): 1.27 | log2FC VLDLR-AS1 ([2]; CCRF-CEM, 0.5 μM, 6 h): 1.02 | log2FC YAP1 ([2]; CCRF-CEM, 0.5 μM, 6 h): 1.04 | number of genes upregulated ([2]; CCRF-CEM, 0.5 μM, 6 h): 16 | number of differentially expressed genes (DEGs) ([2]; CCRF-CEM, 0.5 μM, 16 h): 82 | log2FoldChange ADM2 ([2]; CCRF-CEM, 0.5 μM, 16 hours): 2.31 | log2FoldChange AQP3 ([2]; CCRF-CEM, 0.5 μM, 16 hours): -1.1 | log2FoldChange B4GALNT1 ([2]; CCRF-CEM, 0.5 μM, 16 hours): 2.37 | log2FoldChange CAMKK1 ([2]; CCRF-CEM, 0.5 μM, 16 hours): -1.18 | log2FoldChange CAMKV ([2]; CCRF-CEM, 0.5 μM, 16 hours): -1.07 | log2FoldChange CHAC1 ([2]; CCRF-CEM, 0.5 μM, 16 hours): 3.51 | log2FoldChange DUSP2 ([2]; CCRF-CEM, 0.5 μM, 16 hours): -1.04 | log2FoldChange ENSG00000260498 ([2]; CCRF-CEM, 0.5 μM, 16 hours): 2.28 | log2FoldChange GPT2 ([2]; CCRF-CEM, 0.5 μM, 16 hours): 3.48 | log2FoldChange HRG ([2]; CCRF-CEM, 0.5 μM, 16 hours): 2.92 | log2FoldChange IFRD1 ([2]; CCRF-CEM, 0.5 μM, 16 hours): 2.08 | log2FoldChange L3MBTL2-AS1 ([2]; CCRF-CEM, 0.5 μM, 16 hours): 3.01 | log2FoldChange LINC02970 ([2]; CCRF-CEM, 0.5 μM, 16 hours): 3.49 | log2FoldChange LRRTM1 ([2]; CCRF-CEM, 0.5 μM, 16 hours): -1.11 | log2FoldChange MIR22HG ([2]; CCRF-CEM, 0.5 μM, 16 hours): 2.58 | log2FoldChange MYT1 ([2]; CCRF-CEM, 0.5 μM, 16 hours): -1.13 | log2FoldChange NDUFA4L2 ([2]; CCRF-CEM, 0.5 μM, 16 hours): 2.19 | log2FoldChange NMRAL2P ([2]; CCRF-CEM, 0.5 μM, 16 hours): 2.89 | log2FoldChange NOL3 ([2]; CCRF-CEM, 0.5 μM, 16 hours): 2.29 | log2FoldChange OSGIN1 ([2]; CCRF-CEM, 0.5 μM, 16 hours): 3.08 | log2FoldChange PNMA1 ([2]; CCRF-CEM, 0.5 μM, 16 hours): -1.02 | log2FoldChange RAG1 ([2]; CCRF-CEM, 0.5 μM, 16 hours): -1.12 | log2FoldChange RFPL1S ([2]; CCRF-CEM, 0.5 μM, 16 hours): 2.61 | log2FoldChange RPL23AP42 ([2]; CCRF-CEM, 0.5 μM, 16 hours): -2.03 | log2FoldChange SESN2 ([2]; CCRF-CEM, 0.5 μM, 16 hours): 2.53 | log2FoldChange SLC6A9 ([2]; CCRF-CEM, 0.5 μM, 16 hours): 2.93 | log2FoldChange SLC7A11 ([2]; CCRF-CEM, 0.5 μM, 16 hours): 3.42 | log2FoldChange THOC3 ([2]; CCRF-CEM, 0.5 μM, 16 hours): -1.74 | log2FoldChange TM6SF1 ([2]; CCRF-CEM, 0.5 μM, 16 hours): 2.49 | log2FoldChange VLDLR-AS1 ([2]; CCRF-CEM, 0.5 μM, 16 hours): 2.44 | log2(fold change) ([2]; CHAC1, 6 h): 2.25 | log2(fold change) ([2]; DDIT3, 6 h): 1.15 | log2(fold change) ([2]; ENSG00000260498, 6 h): 1.44 | log2(fold change) ([2]; GPT2, 6 h): 1.24 | log2(fold change) ([2]; L3MBTL2-AS1, 6 h): 2.13 | log2(fold change) ([2]; LINC-PINT, 6 h): 1.34 | log2(fold change) ([2]; LY9, 6 h): 1.05 | log2(fold change) ([2]; SESN2, 6 h): 1.59 | log2(fold change) ([2]; SLC6A9, 6 h): 1.25 | log2(fold change) ([2]; SLC7A11, 6 h): 1.57 | log2(fold change) ([2]; ULBP1, 6 h): 1.2 | log2(fold change) ([2]; VLDLR, 6 h): 1.27 | log2(fold change) ([2]; VLDLR-AS1, 6 h): 1.02 | log2(fold change) ([2]; YAP1, 6 h): 1.04
